Experiments:
Assay in all cases: coupled PPi-release A-domain assay (PPi-PFK/aldolase/TPI/GDH, NADH)
Format in all cases: biochemical
Conditions in all cases: apo-PCP form, 0.5 mM ATP, 1 mM MgCl2, pH 7.4, 0.1 mM EDTA, enzyme 0.5 μM
[1] = molecular target: T1, Tcp12_ΔTE2 (Actinoplanes teichomyceticus, UniProt Q70AZ6)
T1 construct: gene tcp12; with MbtH-like protein Tcp17
Description: coupled PPi-release A-domain assay (PPi-PFK/aldolase/TPI/GDH, NADH) on Tcp12_ΔTE2

[2] = molecular target: T2, Tcp12_ΔTE1 (Actinoplanes teichomyceticus, UniProt Q70AZ6)
T2 construct: gene tcp12; with MbtH-like protein Tcp17
T2 sequence (Q70AZ6 entry or part of it, stated change not applied): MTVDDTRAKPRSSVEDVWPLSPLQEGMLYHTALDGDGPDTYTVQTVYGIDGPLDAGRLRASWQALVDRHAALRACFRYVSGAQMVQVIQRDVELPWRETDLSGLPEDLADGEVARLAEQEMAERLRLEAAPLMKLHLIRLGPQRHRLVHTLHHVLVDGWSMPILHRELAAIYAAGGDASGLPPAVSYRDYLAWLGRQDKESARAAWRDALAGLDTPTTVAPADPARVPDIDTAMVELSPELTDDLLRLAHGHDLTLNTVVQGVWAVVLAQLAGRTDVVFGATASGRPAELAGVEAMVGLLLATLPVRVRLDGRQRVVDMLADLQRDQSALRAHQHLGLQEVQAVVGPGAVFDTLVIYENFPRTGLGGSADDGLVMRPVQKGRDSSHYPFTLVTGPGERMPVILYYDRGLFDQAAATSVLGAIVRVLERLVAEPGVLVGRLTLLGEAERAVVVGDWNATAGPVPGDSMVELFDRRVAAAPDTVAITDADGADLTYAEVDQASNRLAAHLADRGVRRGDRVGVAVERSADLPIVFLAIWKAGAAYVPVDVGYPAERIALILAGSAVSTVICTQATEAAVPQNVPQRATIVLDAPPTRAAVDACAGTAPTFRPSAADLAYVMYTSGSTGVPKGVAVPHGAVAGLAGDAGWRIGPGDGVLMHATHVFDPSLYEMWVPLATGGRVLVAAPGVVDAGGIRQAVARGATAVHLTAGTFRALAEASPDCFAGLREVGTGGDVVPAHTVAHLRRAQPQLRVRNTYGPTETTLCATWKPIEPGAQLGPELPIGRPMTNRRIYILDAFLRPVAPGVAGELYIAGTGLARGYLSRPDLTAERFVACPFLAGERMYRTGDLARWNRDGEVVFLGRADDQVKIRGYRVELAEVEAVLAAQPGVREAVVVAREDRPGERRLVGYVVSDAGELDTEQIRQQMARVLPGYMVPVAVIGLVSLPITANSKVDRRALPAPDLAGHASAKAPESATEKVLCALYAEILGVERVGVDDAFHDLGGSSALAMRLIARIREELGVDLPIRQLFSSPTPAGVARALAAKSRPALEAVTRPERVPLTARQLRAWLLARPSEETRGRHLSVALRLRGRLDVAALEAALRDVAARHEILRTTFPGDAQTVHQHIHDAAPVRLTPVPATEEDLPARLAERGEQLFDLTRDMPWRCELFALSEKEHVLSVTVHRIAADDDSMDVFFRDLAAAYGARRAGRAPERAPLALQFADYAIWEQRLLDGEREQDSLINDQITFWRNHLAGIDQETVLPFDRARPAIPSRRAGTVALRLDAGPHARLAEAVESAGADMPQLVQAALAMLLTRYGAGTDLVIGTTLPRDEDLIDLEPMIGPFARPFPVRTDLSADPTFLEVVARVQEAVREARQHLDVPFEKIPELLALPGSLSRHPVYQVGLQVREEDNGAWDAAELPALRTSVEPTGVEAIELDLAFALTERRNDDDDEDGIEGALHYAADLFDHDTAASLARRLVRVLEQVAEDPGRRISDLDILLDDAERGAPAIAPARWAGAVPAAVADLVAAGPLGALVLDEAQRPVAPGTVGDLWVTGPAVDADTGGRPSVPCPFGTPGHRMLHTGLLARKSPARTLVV
T2 sequence (Q70AZ1 entry or part of it, stated change not applied, further chain): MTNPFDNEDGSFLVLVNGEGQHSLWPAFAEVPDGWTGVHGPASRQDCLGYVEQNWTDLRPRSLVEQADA
Description: coupled PPi-release A-domain assay (PPi-PFK/aldolase/TPI/GDH, NADH) on Tcp12_ΔTE1

[3] = molecular target: T3, Tcp12_ΔTE3 (Actinoplanes teichomyceticus, UniProt Q70AZ6)
T3 construct: gene tcp12; with MbtH-like protein Tcp17
T3 sequence (Q70AZ6 entry or part of it, stated change not applied): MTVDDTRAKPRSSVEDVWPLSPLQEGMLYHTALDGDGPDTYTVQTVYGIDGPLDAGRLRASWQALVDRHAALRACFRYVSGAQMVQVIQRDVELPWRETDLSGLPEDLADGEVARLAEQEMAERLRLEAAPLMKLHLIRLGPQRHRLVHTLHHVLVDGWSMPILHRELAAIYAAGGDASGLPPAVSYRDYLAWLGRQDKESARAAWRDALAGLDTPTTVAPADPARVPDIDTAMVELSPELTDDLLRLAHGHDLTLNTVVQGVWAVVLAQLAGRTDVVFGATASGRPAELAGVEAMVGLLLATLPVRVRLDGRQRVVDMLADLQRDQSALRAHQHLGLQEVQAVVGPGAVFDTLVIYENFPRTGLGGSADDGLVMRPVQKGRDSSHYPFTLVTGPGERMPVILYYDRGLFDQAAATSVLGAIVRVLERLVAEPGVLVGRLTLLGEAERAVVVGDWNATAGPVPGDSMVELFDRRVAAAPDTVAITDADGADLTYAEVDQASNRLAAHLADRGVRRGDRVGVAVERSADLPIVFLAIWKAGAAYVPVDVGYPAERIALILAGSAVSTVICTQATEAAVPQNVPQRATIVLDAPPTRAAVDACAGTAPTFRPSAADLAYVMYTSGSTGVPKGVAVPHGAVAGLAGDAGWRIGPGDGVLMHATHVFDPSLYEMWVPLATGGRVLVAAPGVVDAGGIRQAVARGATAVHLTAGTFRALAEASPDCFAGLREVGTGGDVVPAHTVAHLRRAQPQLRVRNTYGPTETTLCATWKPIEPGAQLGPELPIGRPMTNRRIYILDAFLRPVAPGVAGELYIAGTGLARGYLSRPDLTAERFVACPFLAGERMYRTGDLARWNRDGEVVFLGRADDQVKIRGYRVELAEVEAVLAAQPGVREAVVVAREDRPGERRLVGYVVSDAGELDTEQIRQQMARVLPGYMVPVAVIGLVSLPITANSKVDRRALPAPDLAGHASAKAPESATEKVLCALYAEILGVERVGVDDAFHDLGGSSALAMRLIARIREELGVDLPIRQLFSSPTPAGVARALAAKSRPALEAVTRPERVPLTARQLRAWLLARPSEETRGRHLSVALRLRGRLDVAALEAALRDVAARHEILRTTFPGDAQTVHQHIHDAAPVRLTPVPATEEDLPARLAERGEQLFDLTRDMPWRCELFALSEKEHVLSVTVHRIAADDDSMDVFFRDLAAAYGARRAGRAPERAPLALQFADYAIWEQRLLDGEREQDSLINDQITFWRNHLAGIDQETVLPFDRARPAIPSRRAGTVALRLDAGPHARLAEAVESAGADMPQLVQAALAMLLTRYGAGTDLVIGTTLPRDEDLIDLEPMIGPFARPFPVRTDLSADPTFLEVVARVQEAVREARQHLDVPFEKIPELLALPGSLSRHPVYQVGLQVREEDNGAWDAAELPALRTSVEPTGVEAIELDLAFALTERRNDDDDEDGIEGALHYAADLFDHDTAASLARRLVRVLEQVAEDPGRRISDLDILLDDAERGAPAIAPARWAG
T3 sequence (Q70AZ1 entry or part of it, stated change not applied, further chain): as the sequence (Q70AZ1 entry or part of it, stated change not applied, further chain) above
Description: coupled PPi-release A-domain assay (PPi-PFK/aldolase/TPI/GDH, NADH) on Tcp12_ΔTE3

T1 sequence (Q70AZ6 entry or part of it, stated change not applied): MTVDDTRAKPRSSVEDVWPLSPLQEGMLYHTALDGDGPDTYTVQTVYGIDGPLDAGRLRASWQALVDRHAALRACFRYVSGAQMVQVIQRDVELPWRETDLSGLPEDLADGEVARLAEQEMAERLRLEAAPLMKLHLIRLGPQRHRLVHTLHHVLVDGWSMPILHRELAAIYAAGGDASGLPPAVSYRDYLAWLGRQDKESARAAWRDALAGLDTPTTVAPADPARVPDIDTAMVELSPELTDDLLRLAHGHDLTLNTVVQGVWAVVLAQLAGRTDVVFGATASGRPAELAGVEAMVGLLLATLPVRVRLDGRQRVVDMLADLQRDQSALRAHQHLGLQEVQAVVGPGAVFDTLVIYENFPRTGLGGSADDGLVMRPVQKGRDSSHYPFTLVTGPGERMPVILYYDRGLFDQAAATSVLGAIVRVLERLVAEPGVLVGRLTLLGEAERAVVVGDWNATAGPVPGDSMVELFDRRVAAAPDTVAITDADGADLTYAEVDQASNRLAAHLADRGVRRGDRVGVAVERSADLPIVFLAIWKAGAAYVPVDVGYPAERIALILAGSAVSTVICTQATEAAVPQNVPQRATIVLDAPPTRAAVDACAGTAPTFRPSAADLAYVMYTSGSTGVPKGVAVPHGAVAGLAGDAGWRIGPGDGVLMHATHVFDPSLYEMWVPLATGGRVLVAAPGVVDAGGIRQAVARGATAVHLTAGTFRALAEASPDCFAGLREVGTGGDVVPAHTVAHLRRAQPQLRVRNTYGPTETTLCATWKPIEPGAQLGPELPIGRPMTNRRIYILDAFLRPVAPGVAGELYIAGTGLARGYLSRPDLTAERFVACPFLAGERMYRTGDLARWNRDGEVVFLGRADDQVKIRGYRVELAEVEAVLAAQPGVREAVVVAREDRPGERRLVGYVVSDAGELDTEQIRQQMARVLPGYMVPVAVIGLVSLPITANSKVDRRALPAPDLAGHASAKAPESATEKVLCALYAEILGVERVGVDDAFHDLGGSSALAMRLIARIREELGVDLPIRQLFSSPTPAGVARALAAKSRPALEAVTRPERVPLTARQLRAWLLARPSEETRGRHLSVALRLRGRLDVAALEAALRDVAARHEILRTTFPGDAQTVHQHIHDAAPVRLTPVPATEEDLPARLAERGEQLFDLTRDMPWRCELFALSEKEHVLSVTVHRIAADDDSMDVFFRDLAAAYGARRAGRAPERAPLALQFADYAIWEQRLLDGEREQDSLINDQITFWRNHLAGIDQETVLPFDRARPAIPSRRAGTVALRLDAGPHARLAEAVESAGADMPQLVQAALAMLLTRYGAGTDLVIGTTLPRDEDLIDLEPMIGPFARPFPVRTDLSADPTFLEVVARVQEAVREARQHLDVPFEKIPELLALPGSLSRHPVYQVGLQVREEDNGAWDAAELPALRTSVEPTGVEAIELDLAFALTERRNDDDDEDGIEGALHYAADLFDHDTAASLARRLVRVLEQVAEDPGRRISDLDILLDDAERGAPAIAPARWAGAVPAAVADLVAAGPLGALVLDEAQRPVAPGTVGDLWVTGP
T1 sequence (Q70AZ1 entry or part of it, stated change not applied, further chain): as the sequence (Q70AZ1 entry or part of it, stated change not applied, further chain) above

SMILES: N[C@H](C(=O)O)c1cc(O)cc(O)c1 [Dpg, (S)-3,5-dihydroxyphenylglycine]
- Km [1]: 10 ± 0.9 µM
- Km [2]: 6 ± 0.6 µM
- Km [3]: 8 ± 0.6 µM
